Measurements: ChEMBL document CHEMBL3046565, “Fungicidal and herbicidal activities of berberine related alkaloids” (2000)

Legend:
Format in all cases: functional
[1] = system: Blumeria graminis f. sp. tritici; test: Antifungal activity against Blumeria graminis f. sp. tritici on wheat plant assessed as disease control at 100 ppm after 24 hr
Pyricularia oryzae = test: microbe, parasite or virus in culture; conditions: 24 h
Parastagonospora nodorum [2] = test: Antifungal activity against Phaeosphaeria nodorum on wheat plant assessed as disease control at 100 ppm after 24 hr
[3] = system: Agrostis stolonifera var. palustris; test: Herbicidal activity against Agrostis stolonifera var. palustris at 1 ppm after 9 days relative to control
Ustilago maydis = test: Antifungal activity against Ustilago maydis on rice plant at 25 ppm after 24 hr; conditions: Mycosarcoma maydis
Puccinia recondita = test: Antifungal activity against Puccinia recondita on wheat plant assessed as disease control at 100 ppm after 24 hr
Lemna minor = test: Herbicidal activity against Lemna minor (common duckweed) at 1 ppm after 9 days relative to control
Parastagonospora nodorum [4] = test: Antifungal activity against Phaeosphaeria nodorum on wheat plant at 25 ppm after 24 hr
Phytophthora infestans = test: microbe, parasite or virus in culture; conditions: in Oryza sativa, 24 h
Rhizoctonia solani = test: Antifungal activity against Rhizoctonia solani on rice plant at 25 ppm after 24 hr
Zymoseptoria tritici = test: Antifungal activity against Zymoseptoria tritici on wheat plant at 25 ppm after 24 hr

Row | SMILES | Activity [1] | inhibition at 25 ppm (Pyricularia oryzae) | Activity (Parastagonospora nodorum [2]) | Activity [3] | inhibition at 25 ppm (Ustilago maydis) | Activity (Puccinia recondita) | Activity (Lemna minor) | inhibition at 25 ppm (Parastagonospora nodorum [4]) | inhibition at 25 ppm (Phytophthora infestans) | inhibition at 25 ppm (Rhizoctonia solani) | inhibition at 25 ppm (Zymoseptoria tritici)
1 | COc1cc2c(cc1OC)-c1cc3ccc(OC)c(O)c3c[n+]1CC2.[Cl-] [PALMATRUBINE] | 0% | 0% | 0% | 0% | 0% | 0% | 0% | 0% | 0% | 0% | 0%
2 | CCCCc1c2[n+](cc3c(OC)c(OC)ccc13)CCc1cc(OC)c(OC)cc1-2.[Cl-] | 0% | 0% | 73% | 0% | 0% | 0% | 65% | 0% | 0% | 0% | 90%
3 | CCCc1c2[n+](cc3c(OC)c(OC)ccc13)CCc1cc(OC)c(OC)cc1-2.[Cl-] | 0% | 0% | 73% | 0% | 0% | 0% | 65% | 0% | 0% | 0% | 0%
4 | COc1ccc2cc3[n+](cc2c1O)CCc1cc2c(cc1-3)OCO2 [BERBERRUBINE] | 0% | 0% | 0% | 0% | 0% | 0% | 0% | 0% | 0% | 0% | 0%
5 | COc1cc2c(cc1OC)-c1cc3ccc(OC)c(OC)c3c[n+]1CC2.[Cl-] [PALMATINE CHLORIDE] | 0% | 0% | 0% | 0% | 0% | 0% | 0% | 0% | 0% | 0% | 80%
6 | CCc1c2[n+](cc3c(OC)c(OC)ccc13)CCc1cc(OC)c(OC)cc1-2.[Cl-] | 0% | 0% | 0% | 0% | 0% | 0% | 70% | 0% | 0% | 0% | 0%
7 | COc1ccc2c(c1OC)C[N@@+]1(C)CCc3cc4c(cc3[C@@H]1[C@H]2O)OCO4.[Cl-] | 0% | 0% | 0% | 0% | 0% | 0% | 0% | 0% | 0% | 0% | 0%
8 | CCCCCCc1c2[n+](cc3c(OC)c(OC)ccc13)CCc1cc(OC)c(OC)cc1-2.[Cl-] [13-HEXYLPALMATINE] | 0% | 0% | 80% | 0% | 0% | 67% | 70% | 0% | 0% | 0% | 100%
9 | CCCCc1c2[n+](cc3c(OC)c(OC)ccc13)CCc1cc3c(cc1-2)OCO3.[Cl-] | 0% | 0% | 67% | 0% | 0% | 0% | 60% | 0% | 0% | 0% | 90%
10 | COc1ccc2c(O)c3[n+](cc2c1OC)CCc1cc2c(cc1-3)OCO2.[Cl-] [13-HYDROXYBERBERINE] | 41% | 0% | 0% | 0% | 0% | 67% | 0% | 0% | 40% | 0% | 0%
11 | COc1ccc2c(c1OC)CN1CCc3cc4c(cc3[C@@H]1[C@H]2O)OCO4.Cl | 0% | 0% | 0% | 0% | 0% | 0% | 0% | 0% | 0% | 0% | 0%
